Columns and labels:
Format in all cases: cell-based, Escherichia coli
[1] = tested on: EKO-35 araC::mdtEF; assay: MIC susceptibility profiling, efflux platform; details: for Fold change of MICs: EKO-35 araC::mdtEF compared to EKO-35; for Minimum Inhibitory Concentration, EKO-35 araC::mdtEF: Table 13A, non-porinated, technical duplicate
Outline: (§1)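 MIC derived from pre-incubation-corrected OD600 after 18 h growth at 37° C. (900 rpm) in MHB II. Inoculum was cells from 18 h LB culture adjusted to OD600 ~1.0 in PBS, then diluted 1/2000; compounds two-fold serially titrated in duplicate, DMSO as solvent control.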

[2] = tested on: EKO-35 araC::acrB; assay: MIC susceptibility profiling, efflux platform; details: for Minimum Inhibitory Concentration, EKO-35 araC::acrB: Table 13A, non-porinated, technical duplicate; for Fold change of MICs: EKO-35 araC::acrB compared to EKO-35
Outline: as §1

[3] = tested on: EKO-35-Pore; assay: MIC susceptibility profiling, porinated strain; details: for Fold changes of MICs: EKO-35-Pore compared to EKO-35-Pore (reference); for Minimum inhibitory concentration (MIC), Pore EKO-35: Table 10, with pore; for Minimum inhibitory concentration (MIC), Pore EKO-35 / Minimum inhibitory concentration, EKO-35-Pore: technical duplicate; for Minimum inhibitory concentration, EKO-35-Pore: Table 14A, porinated
Outline: (§2)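 MIC values come from background-corrected OD600 readings (pre-incubation OD subtracted) after 18 h at 37 °C and 900 rpm in MHB II. Compounds were tested in duplicate as 2-fold dilutions. The inoculum came from 18 h LB cultures adjusted to OD600 ~1.0 and diluted 1/2000, and the pore-bearing strains were vancomycin-checked beforehand.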

[4] = tested on: wild-type (WT) K-12-Pore; assay: microbe, parasite or virus in culture; details: technical duplicate; for Minimum inhibitory concentration (MIC), Pore K-12: Table 10, with pore; for Minimum inhibitory concentration, K-12 (WT)-Pore: Table 14A, porinated
Outline: as §2

[5] = tested on: ΔtolC-Pore; assay: microbe, parasite or virus in culture; details: technical duplicate; for Minimum inhibitory concentration (MIC), Pore ΔtolC: Table 10, with pore; for Minimum inhibitory concentration, ΔtolC-Pore: Table 14A, porinated
Outline: as §2

[6] = tested on: wild-type E. coli K-12 str. BW25113; assay: microbe, parasite or virus in culture; details: technical duplicate; for Minimum inhibitory concentration (MIC), K-12: Table 10, without pore; for Minimum Inhibitory Concentration, K-12: Table 13A, non-porinated
Outline: as §1

[7] = tested on: E. coli EKO-35; assay: microbe, parasite or virus in culture; details: for Fold change of MICs: EKO-35 compared to EKO-35 (reference); for Minimum inhibitory concentration (MIC), EKO-35: Table 10, without pore; for Minimum inhibitory concentration (MIC), EKO-35 / Minimum Inhibitory Concentration, EKO-35: technical duplicate; for Minimum Inhibitory Concentration, EKO-35: Table 13A, non-porinated
Outline: as §1

[8] = tested on: E. coli ΔtolC; assay: microbe, parasite or virus in culture; details: technical duplicate; for Minimum inhibitory concentration (MIC), ΔtolC: Table 10, without pore; for Minimum Inhibitory Concentration, ΔtolC: Table 13A, non-porinated
Outline: as §1

O=[N+]([O-])c1ccc2c(c1)C(=NO)c1cc([N+](=O)[O-])ccc1-2 [compound 11]
1 fold: Fold changes of MICs [3] | Fold change of MICs [7]
320 µg/mL: Minimum Inhibitory Concentration, EKO-35 araC::acrB [2] | Minimum inhibitory concentration (MIC), K-12 [6] | Minimum Inhibitory Concentration, K-12 [6]
128 fold: Fold change of MICs [1]
0.156 µg/mL: Minimum inhibitory concentration (MIC), Pore ΔtolC [5] | Minimum inhibitory concentration, ΔtolC-Pore [5] | Minimum inhibitory concentration (MIC), ΔtolC [8] | Minimum Inhibitory Concentration, ΔtolC [8]
susceptible: susceptibility of EKO-35 to the compound ([7]; synthetic efflux substrates of FIG. 12)
80 µg/mL: Minimum inhibitory concentration (MIC), Pore K-12 [4] | Minimum inhibitory concentration, K-12 (WT)-Pore [4]
10 µg/mL: Minimum Inhibitory Concentration, EKO-35 araC::mdtEF [1]
0.078 µg/mL: Minimum inhibitory concentration (MIC), Pore EKO-35 [3] | Minimum inhibitory concentration, EKO-35-Pore [3] | Minimum inhibitory concentration (MIC), EKO-35 [7] | Minimum Inhibitory Concentration, EKO-35 [7]

C[C@H](CCC(=O)NCCS(=O)(=O)[O-])[C@H]1CC[C@H]2[C@@H]3CC[C@@H]4C[C@H](O)CC[C@]4(C)[C@H]3C[C@H](O)[C@]12C.[Na+] [sodium taurodeoxycholate]
2 fold: Fold change of MICs [1] | Fold change of MICs [2]
1 fold: Fold changes of MICs [3] | Fold change of MICs [7]
500 µg/mL: Minimum inhibitory concentration (MIC), EKO-35 [7] | Minimum Inhibitory Concentration, EKO-35 [7]
1000 µg/mL: Minimum Inhibitory Concentration, EKO-35 araC::mdtEF [1] | Minimum Inhibitory Concentration, EKO-35 araC::acrB [2] | Minimum inhibitory concentration (MIC), Pore K-12 [4] | Minimum inhibitory concentration, K-12 (WT)-Pore [4] | Minimum inhibitory concentration (MIC), K-12 [6] | Minimum Inhibitory Concentration, K-12 [6]
250 µg/mL: Minimum inhibitory concentration (MIC), Pore EKO-35 [3] | Minimum inhibitory concentration, EKO-35-Pore [3] | Minimum inhibitory concentration (MIC), Pore ΔtolC [5] | Minimum inhibitory concentration, ΔtolC-Pore [5] | Minimum inhibitory concentration (MIC), ΔtolC [8] | Minimum Inhibitory Concentration, ΔtolC [8]

N#CC(=NNc1ccc(F)c(Cl)c1)C(=O)c1ccc(Cl)cc1 [compound 15]
1.25 µg/mL: Minimum inhibitory concentration (MIC), ΔtolC [8] | Minimum Inhibitory Concentration, ΔtolC [8]
1 fold: Fold change of MICs [1] | Fold change of MICs [2] | Fold changes of MICs [3] | Fold change of MICs [7]
320 µg/mL: Minimum Inhibitory Concentration, EKO-35 araC::mdtEF [1] | Minimum Inhibitory Concentration, EKO-35 araC::acrB [2] | Minimum inhibitory concentration (MIC), Pore EKO-35 [3] | Minimum inhibitory concentration, EKO-35-Pore [3] | Minimum inhibitory concentration (MIC), Pore K-12 [4] | Minimum inhibitory concentration, K-12 (WT)-Pore [4] | Minimum inhibitory concentration (MIC), K-12 [6] | Minimum Inhibitory Concentration, K-12 [6] | Minimum inhibitory concentration (MIC), EKO-35 [7] | Minimum Inhibitory Concentration, EKO-35 [7]
0.625 µg/mL: Minimum inhibitory concentration (MIC), Pore ΔtolC [5] | Minimum inhibitory concentration, ΔtolC-Pore [5]

Reference: patent US20230407243A1, “GENETIC PLATFORM TO INVESTIGATE THE FUNCTIONS OF BACTERIAL DRUG EFFLUX PUMPS” (priority 2022, published 2023)
